Usually Kd stands for the equilibrium constant for the complex coming apart.

Calls of active or inactive are those of the source. The rule behind the calls is not given here.

In the test the target is Ubiquitin-conjugating enzyme E2 N (Homo sapiens) (UniProt P61088). Briefly: NMR detection of UBE2N ligand binding – biophysical, purified protein (AID 1552). The conditions noted are these: NMR binding to purified UBE2N.
Chain of Ubiquitin-conjugating enzyme E2 N (Homo sapiens) (P61088 whole entry, looked up): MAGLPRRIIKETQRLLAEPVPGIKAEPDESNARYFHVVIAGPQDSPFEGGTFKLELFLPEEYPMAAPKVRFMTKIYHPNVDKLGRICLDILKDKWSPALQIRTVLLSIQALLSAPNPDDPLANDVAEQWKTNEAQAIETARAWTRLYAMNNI
Regarding `CC1(C)C(=O)C=C[C@@]2(C)C1CC(=O)[C@]1(C)C2CC[C@@]2(C)[C@H](c3ccoc3)OC(=O)[C@H]3O[C@]321` (stereo not given in full), the Kd is > 4 mM (inactive).
With `Cc1nnc(NC(=O)C(C)Sc2nncn2C)s1` (stereo not given) the figure was > 4 mM (inactive).
In the case of `COc1cccc(-c2nn(-c3ccccc3)cc2CO)c1` it was > 4 mM (inactive); in that of `O=C1NC(=S)NC(=O)C1=Cc1cccs1`, > 4 mM (inactive); in that of `Cc1sc2nc(C)n(NC(N)=O)c(=O)c2c1C`, > 4 mM (inactive).
`N/C(=N/S(=O)(=O)c1cccs1)c1ccccc1`: the Kd is > 4 mM (inactive).
For `CN1CC(=O)N=C1N`, the Kd was > 4 mM (inactive).
With `CC(=O)NC(=S)Nc1nc2ccccc2n1C(C)=O`, the Kd was > 4 mM (inactive).
With `O=C(NCc1cccc(Cl)c1)c1cccnc1` the figure was > 4 mM (inactive); with `Nc1cc(C(=O)N2CCCC2)cc(C(=O)N2CCCC2)c1`, > 4 mM (inactive).
In the case of `N=c1n(N)c2ccccc2n1CCO` it was > 4 mM (inactive).
`CC(C)=CC1C(CO)C1(C)C` (stereo not given): the Kd is > 4 mM (inactive).
In the case of `NC(=O)c1ccc(C(N)=O)c(-c2ccccc2)c1` it was > 4 mM (inactive); in that of `OCCNC(=S)Nc1ccc(F)cc1`, > 4 mM (inactive); in that of `OCn1nnn(-c2ccccc2)c1=S`, > 4 mM (inactive).
In the case of `O=C(NCC1CCNCC1)c1ccncc1` it was > 4 mM (inactive); in that of `NC(=O)c1ccsc1NC(=O)c1cccnc1`, > 4 mM (inactive).
In the case of `C/C=C(\C)c1nnc(NC(=O)c2ccco2)s1` it was > 4 mM (inactive); in that of `CN(C)S(=O)(=O)NCc1ccc2c(c1)OCO2`, > 4 mM (inactive); in that of `Nc1cc(=O)[nH]c(=O)n1-c1ccccc1`, > 4 mM (inactive).
Turning to `Cc1cc(=O)[nH]c(N2CCCCC2)n1`, the Kd was > 4 mM (inactive).
In the case of `CN(C)S(=O)(=O)c1ccccc1C#N` it was > 4 mM (inactive).
In the case of `C[C@@H]1CC[C@@]2(NC1)O[C@H]1C[C@H]3C4CC=C5C[C@@H](O)CC[C@]5(C)C4CC[C@]3(C)C1[C@@H]2C` (stereo not given in full) it was > 4 mM (inactive); in that of `CC(C)n1nnc2cc(C(=O)O)ccc21`, > 4 mM (inactive).
Regarding `OCc1ccc2c(c1)OCCO2`, the Kd is > 4 mM (inactive).
Consider `Nc1cc(N)nc(SCc2cccnc2)n1`, for which the Kd was > 4 mM (inactive).
Regarding `O=C(NCCO)NC(=S)c1ccccc1`, the Kd is > 4 mM (inactive).
With `O=c1[nH]c(N2CCOCC2)nc2ccccc12` the figure was > 4 mM (inactive); with `Cc1cccc(C(C)C)c1NC(=O)c1cccnc1`, > 4 mM (inactive); with `Oc1ccc(C(=S)N2CCCCC2)cc1Cl`, > 4 mM (inactive).
Turning to `O=C(O)/C=C(\CC(=O)O)C(=O)O`, the Kd was > 4 mM (inactive).
In the case of `CN(C)N1C(=O)C2C3C=CC(O3)C2C1=O` (stereo not given) it was > 4 mM (inactive).
With `c1ccc(Cc2nnc3sc(-c4ccccn4)nn23)cc1` the figure was > 4 mM (inactive); with `O=C(O)CC1C(=O)NCCN1Cc1ccccc1` (stereo not given), > 4 mM (inactive); with `CNc1nnc(CSc2nc(C)cc(C)n2)s1`, > 4 mM (inactive).
In the case of `CC1(C)O[C@H]2CC(=O)OC[C@]23[C@H]2CC[C@@]4(C)[C@H](c5ccoc5)OC(=O)[C@H]5O[C@]54[C@]2(C)C(=O)C[C@@H]13` it was > 4 mM (inactive); in that of `O=C(NCO)c1ccc([N+](=O)[O-])cc1`, > 4 mM (inactive).
With `O=C(NCc1ccc2c(c1)OCO2)c1cccs1`, the Kd was > 4 mM (inactive).
With `CCC(=O)Nc1ccccc1NC(C)=O` the figure was > 4 mM (inactive); with `COc1cc(OC)c2ccc(=O)oc2c1`, > 4 mM (inactive).
With `O=C(/C=C/C=C/c1ccc2c(c1)OCO2)N1CCCCC1` the figure was > 4 mM (inactive); with `O=C1C2CC=CCC2C(=O)N1c1ccccc1O` (stereo not given), > 4 mM (inactive).
Consider `CSc1nc(-c2ccco2)nn1S(C)(=O)=O`, for which the Kd was > 4 mM (inactive).
On to `Cc1nc2nc(-c3ccco3)nn2c(C)c1Cl`, for which the Kd was > 4 mM (inactive).
With `CC(=O)OCC(OC(C)=O)C(OC(C)=O)C(OC(C)=O)C(OC(C)=O)C(COC(C)=O)OC(C)=O` (stereo not given) the figure was > 4 mM (inactive); with `Cc1nc(-c2ccc(NS(C)(=O)=O)cc2)cs1`, > 4 mM (inactive).
In the case of `COCCn1c(SC)nc2c1c(=O)[nH]c(=O)n2C` it was > 4 mM (inactive); in that of `Cc1c(C)c2c(c(C)c1O)CCC(C)(CCCC(C)CCCC(C)CCCC(C)C)O2` (stereo not given), > 4 mM (inactive); in that of `CCOC(=O)CSc1nnc(C)c(=O)[nH]1`, > 4 mM (inactive).
As for `CNC(=O)C1=NCCCc2cc(OC)c(OC)cc21`, the Kd is > 4 mM (inactive).
In the case of `COc1ccc(-c2c(C)n([O-])c(C)c(C)[n+]2=O)cc1` it was > 4 mM (inactive); in that of `CC1(C)Cc2nc(N3CCOCC3)c(C#N)cc2CO1`, > 4 mM (inactive); in that of `NC1Cc2ccccc2C1`, > 4 mM (inactive).
With `NCc1cn2ccccc2n1` the figure was > 4 mM (inactive).
In the case of `O=c1cccc2n1C[C@H]1CNCC2C1` it was > 4 mM (inactive); in that of `C=CCSc1[nH]c(=O)cc(C)c1C(N)=O`, > 4 mM (inactive); in that of `O=C(O)CCNc1n[nH]c(=O)[nH]c1=O`, > 4 mM (inactive).
As to `NC(=O)NC(=O)Nc1ccc(Cl)cc1`, the Kd was > 4 mM (inactive).
With `CC1=NN2C(=N)/C(=C\c3cccs3)C(=O)N=C2S1` the figure was > 4 mM (inactive); with `O=C(Nn1c(=S)[nH]c2ccccc2c1=O)c1ccncc1`, > 4 mM (inactive).
With `CN(C)/C=N/S(=O)(=O)c1ccccc1` the figure was > 4 mM (inactive); with `O=c1[nH]cc(NCc2ccccc2)c(=O)[nH]1`, > 4 mM (inactive); with `Nc1ccc(C(=O)NCC2CCCO2)cc1` (stereo not given), > 4 mM (inactive).
With `CC(C)=CCc1c(O)cc2oc(C)cc(=O)c2c1O` the figure was > 4 mM (inactive); with `CSc1ccc(S(=O)(=O)N2CCCC2)cc1`, > 4 mM (inactive); with `CS(=O)(=O)Nc1ccc(C(=O)N2CCCCC2)cc1`, > 4 mM (inactive).
With `CC(=O)Nc1c(Cl)cnn(-c2ccccc2)c1=O`, the Kd was > 4 mM (inactive).
In the case of `CC(=O)c1ccc(NC(=S)N2CCC(O)CC2)cc1` it was > 4 mM (inactive); in that of `COc1ccc(C(=O)/C=C/c2ccccc2)cc1`, > 4 mM (inactive).
Turning to `c1ccc(-n2cnnc2)nc1`, the Kd was > 4 mM (inactive).
For the molecule `COc1cc2nc(N3CCNCC3)nc(N)c2cc1OC`, the Kd was > 4 mM (inactive).
With `O=C(Nc1ccc(N2CCOCC2)cc1)C1CC1` the figure was > 4 mM (inactive); with `Cc1nnc(SCc2cccs2)[nH]c1=O`, > 4 mM (inactive); with `O=C1CSC(c2ccccc2)N1` (stereo not given), > 4 mM (inactive).
In the case of `COC(=O)C1CCN(c2ccc(Cl)nn2)CC1` it was > 4 mM (inactive).
Regarding `O=C(NN1C(=O)CSC1=S)c1ccccc1`, the Kd is > 4 mM (inactive).
In the case of `CSc1nc(NC(C)(C)C)nc(N2CCOCC2)n1` it was > 4 mM (inactive); in that of `COc1cc(/C=C/C(=O)/C=C(O)/C=C/c2ccc(O)c(OC)c2)ccc1O`, > 4 mM (inactive); in that of `COc1ccc(-c2cc3nc4n(c(=O)c3s2)CCC4)cc1`, > 4 mM (inactive).
With `CSc1nnc2ccc(-c3cccnc3)nn12` the figure was > 4 mM (inactive).
Turning to `O=C(NCc1cccs1)c1ccc2c(c1)OCCO2`, the Kd was > 4 mM (inactive).
With `OCc1ccc(Oc2ccccc2)nc1` the figure was > 4 mM (inactive); with `CC1=C(C(N)=O)C(c2ccccc2)NC(=O)N1` (stereo not given), > 4 mM (inactive).
In the case of `O=C(Cc1c(F)cccc1Cl)Nc1cccnc1` it was > 4 mM (inactive); in that of `CC(=O)c1c(C)nc(-c2cccs2)n1O`, > 4 mM (inactive).
Turning to `O=C(O)C(CO)c1ccccc1` (stereo not given), the Kd is > 4 mM (inactive).
Consider `CCCNC(=O)CSc1ncccc1C(=O)O`, for which the Kd was > 4 mM (inactive).
Consider `COc1c(C(C)C)oc2cc3oc(=O)ccc3cc12`, for which the Kd was > 4 mM (inactive).
In the case of `O=c1c2ccccc2[nH]c2ncccc12` it was > 4 mM (inactive).
In the case of `CC(=O)Nc1cc(O)cc(O)c1` it was > 4 mM (inactive).
In the case of `Cn1c(=O)[nH]c2nc[nH]c2c1=O` it was > 4 mM (inactive); in that of `CSc1ccc(C2NC(=O)CCC2[N+](=O)[O-])cc1` (stereo not given), > 4 mM (inactive); in that of `CC(=O)Nc1cc(C(N)=O)cc(C(N)=O)c1`, > 4 mM (inactive).
For `C=C1C2CC[C@@]3(C)[C@H](c4ccoc4)OC(=O)C[C@]13O[C@H]1CC(=O)C(C)(C)[C@H](C(O)C(=O)OC)[C@@]21C` (stereo not given in full), the Kd is > 4 mM (inactive).
With `CNC(=O)Nc1cccc(C(F)(F)F)c1` the figure was > 4 mM (inactive); with `O=C(O)C1CCCCN1Cc1ccccc1` (stereo not given), > 4 mM (inactive).
For `O=S(=O)(Nc1cccc2cn[nH]c12)c1ccc(F)cc1`, the Kd was > 4 mM (inactive).
With `S=C(NCc1cccnc1)NC1CC1` the figure was > 4 mM (inactive); with `O=C(Nc1ccc2c(c1)OCO2)c1c(F)cccc1F`, > 4 mM (inactive).
In the case of `Cn1nnc2cc(C(=O)N3CCSCC3)ccc21` it was > 4 mM (inactive); in that of `NC(Cn1ccc(=O)c(O)c1)C(=O)O` (stereo not given), > 4 mM (inactive).
In the case of `Cc1cc(C)n2c(SCc3c(C)noc3C)nnc2n1` it was > 4 mM (inactive); in that of `Cc1ccc(CCNc2ccccc2)c[n+]1[O-]`, > 4 mM (inactive).
`Cn1c(SCCC(=O)O)nnc1-c1cccnc1`: the Kd is > 4 mM (inactive).
In the case of `c1ccc(-c2nnc(CNCc3ccco3)o2)cc1` it was > 4 mM (inactive).

The values above are taken from PubChem BioAssay AID1552 (Sanford-Burnham Center for Chemical Genomics, 2009).
